{"source": "patent US5856189A", "about": "“Cell culture model for drug bioavailability” (priority 1997, dated 1999)", "key": {"Caco-2 cells": {"tested_on": "Caco-2 cells", "assay": "Apical/basolateral distribution of midazolam and metabolite across Caco-2 monolayers", "from_the_text": "At the end of this period, the medium was replaced with medium not containing vitamin D (except that contributed by the 5% FBS)."}, "CYP3A (Caco-2 cells)": {"target": "CYP3A (Caco-2 cells) (Homo sapiens, UniProt P08684)", "sequence (P08684 2-503)": "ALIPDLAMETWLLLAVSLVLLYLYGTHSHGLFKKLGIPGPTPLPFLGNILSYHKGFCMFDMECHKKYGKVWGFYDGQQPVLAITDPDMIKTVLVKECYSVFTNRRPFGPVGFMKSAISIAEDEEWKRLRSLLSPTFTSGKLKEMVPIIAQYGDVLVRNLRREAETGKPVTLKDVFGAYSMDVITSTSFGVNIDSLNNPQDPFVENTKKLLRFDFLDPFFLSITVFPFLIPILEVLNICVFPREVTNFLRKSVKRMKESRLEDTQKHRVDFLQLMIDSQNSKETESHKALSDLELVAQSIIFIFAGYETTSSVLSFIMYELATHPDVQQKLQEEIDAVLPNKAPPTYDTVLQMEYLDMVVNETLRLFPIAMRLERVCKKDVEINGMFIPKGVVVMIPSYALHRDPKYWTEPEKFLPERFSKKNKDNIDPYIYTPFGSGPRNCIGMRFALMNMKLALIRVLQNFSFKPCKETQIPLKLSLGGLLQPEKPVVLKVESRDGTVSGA", "method": "Standards were also prepared in duplicate. Known amounts of MDZ and 1'-OH-MDZ (1-50 ng) were combined with 100 mM potassium phosphate buffer, pH 7.4.\nUnknowns and standards were extracted with 5 mL ethyl acetate and the upper organic layer transferred to clean tubes. The solvent was evaporated to dryness under a stream of nitrogen. The remaining solvent was reconstituted in 100 μL derivatizing reagent (10% N-methyl-N-(t-butyldimethylsilyl)trifluoroacetamide in acetonitrile).\nAt the end of this period, the medium was replaced with medium not containing vitamin D (except that contributed by the 5% FBS). Next, 4 μM MDZ was added to the apical (luminal) or basolateral (serosal) medium of the cells.\nParent drug and metabolite concentrations measured at 1 and 2 hours after MDZ administration were used for computation. The amount of 1'-OH-MDZ formed during this interval was determined as the sum of metabolite in the apical and basolateral compartments at 2 hours minus the total amount measured at 1 hour.\nBecause the incubation medium contained significant amounts of FBS, the fraction of MDZ bound to culture medium proteins was measured by equilibrium dialysis. […] The unbound concentration of MDZ in the apical and basolateral compartments during cell culture was calculated as the product of the experimentally determined MDZ-free fraction and total MDZ concentration. Since MDZ concentrations in the apical and basolateral compartments were not at equilibrium during the 1-2 hour MDZ incubation interval, the intracellular reaction was assumed to be driven by a MDZ concentration that was more closely aligned with the concentration in the basolateral compartment.\nAt the end of this period, the medium was replaced with medium containing neither serum nor vitamin D. Next, MDZ (4 μM) was added to the apical compartment."}, "[1]": {"details": "M. F. Paine et al.; cited from earlier work"}, "[2]": {"assay": "Intrinsic 1'-OH-MDZ formation clearance, human duodenal mucosa/microsomes", "type": "in vitro ADME", "details": "duodenal microsomes; eight human duodenal preparations, Vmax/Km; read-out: Microsomal intrinsic clearance (1'-OH-MDZ formation), duodenum", "method": "(§1) For comparison, an intrinsic 1'-OH-MDZ formation clearance was determined for eight paired human duodenal and jejunal mucosae. The mucosal mass was removed from ~1 foot sections of duodenum and jejunum and total homogenate and microsomes were prepared, as described above. […] Microsomes were incubated with varying concentrations of MDZ for determination of Km and Vmax parameters for 1'-hydroxylation.\n(§2) The total amount of microsomal protein per gram of mucosa was determined from the following relationship: [formula] This calculation assumes that CYP3A4 found in mucosal homogenate resides exclusively within the microsomal fraction. The microsomal intrinsic formation clearance was calculated as the ratio of Vmax to Km. The intrinsic 1'-OH-MDZ formation clearance per gram of mucosa was calculated as the product of the microsomal intrinsic formation clearance and the computed amount of microsomal protein per gram of mucosa."}, "[3]": {"tested_on": "human duodenal microsomes (CYP3A)", "assay": "Intrinsic 1'-OH-MDZ formation clearance, human duodenal mucosa/microsomes", "type": "in vitro ADME", "details": "eight human duodenal preparations, Vmax/Km; listed as MDZ", "method": "as §1, §2"}, "[4]": {"assay": "Intrinsic 1'-OH-MDZ formation clearance, human jejunal mucosa/microsomes", "type": "in vitro ADME", "details": "jejunal microsomes; eight human jejunal preparations, Vmax/Km; read-out: Microsomal intrinsic clearance (1'-OH-MDZ formation), jejunum", "method": "as §1, §2"}, "[5]": {"tested_on": "human jejunal microsomes (CYP3A)", "assay": "Intrinsic 1'-OH-MDZ formation clearance, human jejunal mucosa/microsomes", "type": "in vitro ADME", "details": "eight human jejunal preparations, Vmax/Km; listed as MDZ", "method": "as §1, §2"}, "CYP3A": {"tested_on": "CYP3A", "details": "K. E. Thummel et al.; cited from earlier work"}, "[6]": {"details": "1α,25-(OH)2 -D3 pretreated cells"}}}
{"compound": "Cc1ncc2n1-c1ccc(Cl)cc1C(c1ccccc1F)=NC2", "note": "[midazolam]", "values": [{"measurement": "apical-to-basolateral concentration gradient of parent compound", "setting": "Caco-2 cells; apical administration of 4 μM MDZ, 12-24 h", "result": "approximately 1.4 fold"}, {"measurement": "distribution of parent compound after basolateral administration", "setting": "Caco-2 cells; by 12 hours", "result": "distributed preferentially to the apical medium"}, {"measurement": "predicted unbound intracellular MDZ concentration in Caco-2 cells", "setting": "CYP3A (Caco-2 cells)", "result": "~ 0.07 μM"}, {"measurement": "rate of 1'-OH-MDZ formation over time", "setting": "CYP3A (Caco-2 cells); 0-24 h, FIG. 6A", "result": "remained roughly constant after 6 hours"}, {"measurement": "time until 1'-OH-MDZ detectable after MDZ administration", "setting": "CYP3A (Caco-2 cells); 4 μM MDZ to either compartment, cells treated with 0.25 μM 1α,25-(OH)2 -D3", "result": "≤ 1", "unit": "h"}, {"measurement": "1'-Hydroxymidazolam formation rate", "setting": "CYP3A (Caco-2 cells); 1-2 h incubation interval, 4 μM MDZ apical", "result": 75.9, "unit": "pmol/min/g cells"}, {"measurement": "unbound midazolam concentration, apical", "setting": "CYP3A (Caco-2 cells); 1-2 h interval", "result": 280, "unit": "nM"}, {"measurement": "unbound midazolam concentration, basolateral", "setting": "CYP3A (Caco-2 cells); 1-2 h interval", "result": 66.3, "unit": "nM"}, {"measurement": "intrinsic 1'-OH-MDZ formation clearance, Caco-2 cells", "setting": "CYP3A (Caco-2 cells); 1-2 h interval, non-saturating", "result": 1.14, "unit": "ml/min/g cells"}, {"measurement": "average midazolam concentration, apical", "setting": "CYP3A (Caco-2 cells); 1-2 h interval, total", "result": 2740, "unit": "nM"}, {"measurement": "average midazolam concentration, basolateral", "setting": "CYP3A (Caco-2 cells); 1-2 h interval, total", "result": 650, "unit": "nM"}, {"measurement": "intrinsic 1'-OH-MDZ formation clearance of Caco-2 cells as percent of duodenal mucosa", "setting": "CYP3A (Caco-2 cells); [6]", "result": 30, "unit": "%"}, {"measurement": "intrinsic 1'-OH-MDZ formation clearance of Caco-2 cells as percent of jejunal mucosa", "setting": "CYP3A (Caco-2 cells); [6]", "result": 31, "unit": "%"}, {"measurement": "site of midazolam glucuronidation in vivo", "setting": "[1]", "result": "occurs primarily in the liver and not in the intestine in vivo"}, {"measurement": "microsomal CLint", "setting": "[2]", "result": "134 ± 109", "unit": "µL/min/mg"}, {"measurement": "Microsomal intrinsic clearance (1'-OH-MDZ formation), duodenum", "setting": "[3]", "result": 133.8, "unit": "μl/min/mg protein"}, {"measurement": "microsomal CLint", "setting": "[4]", "result": "118 ± 98.2", "unit": "µL/min/mg"}, {"measurement": "Microsomal intrinsic clearance (1'-OH-MDZ formation), jejunum", "setting": "[5]", "result": 118.3, "unit": "μl/min/mg protein"}, {"measurement": "Km", "setting": "CYP3A", "result": "~3.4", "unit": "µM"}]}
